The values that follow come from patent publication US20110065788A1, “AQUEOUS FORMULATIONS OF (2-HYDROXYMETHYL-INDANYL-4-OXY)-PHENYL-4,4,4-TRIFLUOROBUTANE-1-SULFONATE” (BAYER SCHERING PHARMA AKTIENGESELLSCHAFT, priority 2002, published 2011).

Values after ≈ are worked out from the molar mass of the structure shown.

A short description of the data set: solubility in water. The format is physicochemical. The settings on record: 25° C.

As to `O=S(=O)(CCCC(F)(F)F)Oc1cccc(Oc2cccc3c2C[C@H](CO)C3)c1` [Compound (I), (−)-(R)-3-(2-Hydroxymethylindanyl-4-oxy)phenyl 4,4,4-trifluorobutane-1-sulfonate], the solubility (commonly the dissolved amount per volume that the medium holds) worked out at 2 µg/mL (≈ 4.65 µM).
